Target: T1, IRAK4 (Homo sapiens, UniProt Q9NWZ3)
T1 construct: endogenous in cells; host or cells: OCI-LY10
T1 sequence (Q9NWZ3 1-460): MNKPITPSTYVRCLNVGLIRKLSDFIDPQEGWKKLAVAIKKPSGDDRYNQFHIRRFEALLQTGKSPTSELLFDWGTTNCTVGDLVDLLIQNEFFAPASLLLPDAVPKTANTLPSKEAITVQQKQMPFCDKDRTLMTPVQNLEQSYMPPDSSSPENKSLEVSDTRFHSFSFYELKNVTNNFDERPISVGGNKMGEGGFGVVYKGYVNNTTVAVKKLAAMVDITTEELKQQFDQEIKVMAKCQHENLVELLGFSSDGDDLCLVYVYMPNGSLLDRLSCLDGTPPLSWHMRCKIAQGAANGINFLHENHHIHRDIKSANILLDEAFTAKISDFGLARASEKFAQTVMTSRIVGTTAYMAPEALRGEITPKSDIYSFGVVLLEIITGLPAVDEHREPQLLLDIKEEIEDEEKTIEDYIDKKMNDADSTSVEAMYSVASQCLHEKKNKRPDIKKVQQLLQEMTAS
Experiment: IRAK4 MSD degradation in OCI-LY10
Type: cell-based
Conditions: OCI-LY10 cells, 24 hrs, Meso Scale Discovery
How it was run: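 OCI-LY10 cells treated 4 to 24 hours at 37° C. with 8-dose 1:3 series, top 1 to 10 μM. IRAK4 in lysates quantified by MSD sandwich immunoassay (mouse capture, rabbit detection, SULFO-TAG anti-rabbit). DC50 from three-parameter logistic fit.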

DC50 [nM] | Structure (SMILES)
> 200 | Cn1c(=O)n(C2CCC(=O)NC2=O)c2cccc(N3CC(OC[C@H]4CC[C@H](n5cc6cc(NC(=O)c7cccc(C(F)(F)F)n7)ccc6n5)CC4)C3)c21 (some centres unmarked) [I-242]
< 10 | CC(C)(O)c1cc2nn([C@H]3CC[C@H](CN4CCN(c5ccc(C6CCC(=O)NC6=O)c(Cl)c5)CC4)CC3)cc2cc1NC(=O)c1cccc(C(F)(F)F)n1 (some centres unmarked) [I-76]
< 10 | Cn1c(=O)n([C@H]2CCC(=O)NC2=O)c2cccc([C@@H]3CCN(C[C@H]4CC[C@H](c5nc6cc(C(C)(C)O)c(NC(=O)c7cncc(C#N)c7)cc6s5)CC4)C[C@H]3F)c21 (single isomer, unassigned) [I-236]
< 10 | COc1cc2nc([C@H]3CC[C@H](CN(C)[C@H]4CCN(c5cccc6c5n(C)c(=O)n6C5CCC(=O)NC5=O)C[C@H]4F)CC3)cn2cc1NC(=O)c1cncc(C(F)(F)F)n1 (single isomer, unassigned) [I-333]
< 10 | Cc1nn(C2CCC(=O)NC2=O)c2cccc(N3CC(CN4CCN(C[C@H]5CC[C@H](n6cc(NC(=O)c7cnn8ccc(N9C[C@H]%10C[C@@H]9CO%10)nc78)c(C(F)F)n6)CC5)CC4)C3)c12 (some centres unmarked) [I-45]
< 10 | Cn1nc(C2CCC(=O)NC2=O)c2cccc(N3CC(CN4CCN(C[C@H]5CC[C@H](n6cc(NC(=O)c7cnn8ccc(N9C[C@H]%10C[C@@H]9CO%10)nc78)c(C(F)F)n6)CC5)CC4)C3)c21 (some centres unmarked) [I-93]
< 10 | Cn1c(=O)n(C2CCC(=O)NC2=O)c2ccc(F)c([C@@H]3CCN(C[C@H]4CC[C@H](n5cc6cc(NC(=O)c7cncc(C(F)(F)F)n7)ccc6n5)CC4)CC3(F)F)c21 (single isomer, unassigned) [I-376]
10 to 100 | COc1cc2nn([C@H]3CC[C@H](CN4CCC5(CCN(c6ccc(C7CCC(=O)NC7=O)c(Cl)c6)CC5)C(F)(F)C4)CC3)cc2cc1NC(=O)c1cncc(C#N)c1 (some centres unmarked) [I-130]
< 10 | CN(C[C@H]1CC[C@H](c2nc3cc(C(C)(C)O)c(NC(=O)c4cccc(C(F)(F)F)n4)cc3o2)CC1)[C@H]1CCN(c2cccc3c2n(C)c(=O)n3C2CCC(=O)NC2=O)C[C@@H]1F (some centres unmarked) [I-138]
< 10 | COc1ccc2c(c1N1CC[C@@H](N(C)C[C@H]3CC[C@H](n4cc(NC(=O)c5cnn6cccnc56)c(C(F)F)n4)CC3)[C@H](F)C1)n(C)c(=O)n2C1CCC(=O)NC1=O (single isomer, unassigned) [I-152]
< 10 | Cn1nc(C2CCC(=O)NC2=O)c2cccc([C@H]3CCN(C[C@H]4CC[C@H](n5cc6cc(NC(=O)c7cncc(C(F)(F)F)n7)ccc6n5)CC4)CC3(F)F)c21 (single isomer, unassigned) [I-380]
< 10 | COc1ccc2c(c1N1CC[C@@H](N(C)C[C@H]3CC[C@H](n4cc(NC(=O)c5cnn6cccnc56)c(C(F)F)n4)CC3)[C@@H](F)C1)n(C)c(=O)n2C1CCC(=O)NC1=O (single isomer, unassigned) [I-153]
< 10 | CN(C[C@H]1CC[C@H](c2nc3cc(C(C)(C)O)c(NC(=O)c4cncc(C(F)(F)F)n4)cc3o2)CC1)[C@H]1CCN(c2cccc3c2n(C)c(=O)n3C2CCC(=O)NC2=O)C[C@H]1F (single isomer, unassigned) [I-299]
100 to 200 | Cn1c(=O)n(C2CCC(=O)NC2=O)c2cccc(N3CCN(C[C@H]4CC[C@H](n5cc6cc(NC(=O)c7cncc(C(F)(F)F)n7)ccc6n5)CC4)[C@@H](C(F)(F)F)C3)c21 (some centres unmarked) [I-369]
10 to 100 | O=C1CCC(c2ccc(N3CC(CO[C@H]4CCN(C[C@H]5CC[C@H](n6cc(NC(=O)c7cnn8ccc(N9C[C@H]%10C[C@@H]9CO%10)nc78)c(C(F)F)n6)CC5)C[C@@H]4F)C3)cc2Cl)C(=O)N1 (some centres unmarked) [I-55]
< 10 | CN(C[C@H]1CC[C@H](n2cc3cc(NC(=O)c4cccc(C(F)(F)F)n4)c(C#N)cc3n2)CC1)[C@H]1CCN(c2cccc3c2n(C)c(=O)n3C2CCC(=O)NC2=O)C[C@H]1F (some centres unmarked) [I-8]
< 10 | Cn1nc([C@H]2CCC(=O)NC2=O)c2cccc([C@@H]3CCN(C[C@H]4CC[C@H](n5cc6cc(NC(=O)c7cncc(C#N)c7)c(C(C)(C)O)cc6n5)CC4)CC3(F)F)c21 (single isomer, unassigned) [I-417]

Source: patent US20250059164A1, “IRAK DEGRADERS AND USES THEREOF” (Kymera Therapeutics, Inc., priority 2023, published 2025)
